From US20250122223A1, “HETEROCYCLIC COMPOUNDS AS UBIQUITIN SPECIFIC PROTEASE 7 INHIBITORS” (ALMAC DISCOVERY LIMITED, priority 2022, published 2025)

What was measured:
USP7 [1] = molecular target: T1, USP7 (Homo sapiens (Human), UniProt Q93009); test: USP7 fluorescence polarisation (FP) assay with ubiquitin-Lys-TAMRA substrate; type: biochemical
USP7 [2] = molecular target: T1, USP7; test: Target engagement assay-HTRF, competition with HA-Ub-VPS probe in HEK293 cells stably expressing Flag-tagged USP7; type: cell-based; details: HEK293 stable clone M6C5, 2 h treatment; read-out: Cellular target engagement: HEK293 Stable clone M6C5 USP7 IC50
Protocol: HEK293 cells stably expressing Flag-tagged USP7 were treated with vehicle (DMSO) or compound (using 50 μM starting concentration and 11 dp using 1:3 serial dilution) for 2 h and subsequently lysed on ice and homogenised. Cell lysate and HA-Ub-VPS probe was then added to a white flat bottomed 384 well plate (Greiner) to a total volume of 10 μL and incubated for 40 min. 10 μL of D2 and Tb detection antibodies were subsequently added to give a final assay volume of 20 μL. Following incubation, HTRF were measured using a Pherastar FSX (BMG Labtech) exciting at 337 nm and measuring the emission at 620/665 nm. The HTRF ratiometric signal was derived and subsequently normalised to the lysate only controls. Data were plotted and fitted, and the concentrations resulting in 50% inhibition (IC50) were calculated using the non-linear regression curve fitting model using GraphPad Prism. IC50 values for the inhibitors of the invention are compiled in Table 1 above and represent the average of at least duplicate experiments.

[3] = average of at least duplicate experiments, read-out: Biochemical: USP7 IC50
[4] = biochemical inhibition, read-out: USP7 IC50 activity (Table 3a, classes)
[5] = biochemical inhibition, unit not given in Table 3b (Table 1 and key of Table 3a use μM), read-out: USP7 IC50 activity (Table 3b)

T1 sequence (Q93009 whole entry): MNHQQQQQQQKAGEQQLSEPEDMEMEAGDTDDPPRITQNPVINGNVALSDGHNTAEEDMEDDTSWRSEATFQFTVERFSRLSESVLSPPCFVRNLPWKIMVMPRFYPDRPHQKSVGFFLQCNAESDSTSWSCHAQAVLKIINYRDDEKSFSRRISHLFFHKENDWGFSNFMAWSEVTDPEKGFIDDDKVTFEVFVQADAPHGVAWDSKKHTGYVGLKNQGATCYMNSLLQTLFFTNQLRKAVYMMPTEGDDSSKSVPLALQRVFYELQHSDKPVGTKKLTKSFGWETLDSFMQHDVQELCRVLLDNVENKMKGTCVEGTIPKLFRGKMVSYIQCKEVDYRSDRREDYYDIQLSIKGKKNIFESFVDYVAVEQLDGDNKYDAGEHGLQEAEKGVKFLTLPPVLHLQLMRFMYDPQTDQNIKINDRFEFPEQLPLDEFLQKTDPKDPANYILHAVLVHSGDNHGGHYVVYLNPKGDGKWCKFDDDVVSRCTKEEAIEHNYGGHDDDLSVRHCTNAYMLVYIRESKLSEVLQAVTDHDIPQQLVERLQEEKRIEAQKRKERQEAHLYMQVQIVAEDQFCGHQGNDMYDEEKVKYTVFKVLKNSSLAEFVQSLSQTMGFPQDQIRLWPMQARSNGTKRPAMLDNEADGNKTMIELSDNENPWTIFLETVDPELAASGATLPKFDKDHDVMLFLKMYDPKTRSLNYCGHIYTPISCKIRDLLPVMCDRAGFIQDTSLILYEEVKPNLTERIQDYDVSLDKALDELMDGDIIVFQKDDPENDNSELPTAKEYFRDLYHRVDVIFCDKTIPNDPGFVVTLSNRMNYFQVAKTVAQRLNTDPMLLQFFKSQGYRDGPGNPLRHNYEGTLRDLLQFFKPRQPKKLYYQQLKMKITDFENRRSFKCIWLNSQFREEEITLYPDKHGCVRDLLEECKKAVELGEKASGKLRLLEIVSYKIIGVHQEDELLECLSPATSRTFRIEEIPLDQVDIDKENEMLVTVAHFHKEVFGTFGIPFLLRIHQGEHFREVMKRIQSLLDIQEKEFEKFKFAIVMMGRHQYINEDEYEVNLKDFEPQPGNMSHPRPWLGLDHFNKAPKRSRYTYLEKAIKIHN

Structure (SMILES) | IC50 (USP7 [1]; [3]) [µM] | IC50 (USP7 [1]; [4]) [µM] | IC50 (USP7 [1]; [5]) [µM] | IC50 (USP7 [2]) [nM]
Cc1cc(-n2c(Cl)cc3c(=O)n(CC4(O)CCN(C(=O)[C@]5(C)C[C@H]5C(F)(F)F)CC4)cnc32)ccc1[C@H]1CO[C@H](C)CN1 (single isomer, unassigned) [Example 62] | 0.038 | < 0.1 | 0.038 | 100
CC[C@H]1CN[C@H](c2ccc(-n3c(Cl)cc4c(=O)n(CC5(O)CCN(C(=O)[C@]6(C)C[C@H]6C(F)(F)F)CC5)cnc43)cc2)CO1 (single isomer, unassigned) [Example 66, 6-Chloro-7-(4-((3R,6S)-6-ethylmorpholin-3-yl)phenyl)-3-((4-hydroxy-1-((1 S,2S)-1-methyl-2-(trifluoromethyl)cyclopropane-1-carbonyl)piperidin-4-yl)methyl)-3,7-dihydro-4H-pyrrolo[2,3-d]pyrimidin-4-one or 6-chloro-7-(4-((3R,6S)-6-ethylmorpholin-3-yl)phenyl)-3-((4-hydroxy-1-((1R,2R)-1-methyl-2-(trifluoromethyl)cyclopropane-1-carbonyl)piperidin-4-yl)methyl)-3,7-dihydro-4H-pyrrolo[2,3-d]pyrimidin-4-one] | 0.063 | < 0.1 | 0.063 | 74
O=C(C[C@H](c1ccccc1)C(F)F)N1CCC(O)(Cn2cnc3c(cc(Cl)n3-c3ccc([C@H]4COCCN4)cc3)c2=O)CC1 (single isomer, unassigned) [Example 82] | 0.006 | < 0.1 | 0.006 | 9.4
C[C@H]1OCCN[C@@H]1c1ccc(-n2c(Cl)cc3c(=O)n(CC4(O)CCN(C(=O)c5ccc(Cl)cc5)CC4)cnc32)cc1 [Example 8, 6-Chloro-3-((1-(4-chlorobenzoyl)-4-hydroxypiperidin-4-yl)methyl)-7-(4-((2R,3R)-2-methylmorpholin-3-yl)phenyl)-3,7-dihydro-4H-pyrrolo[2,3-d]pyrimidin-4-one] | 0.077 | < 0.1 | 0.077 | 66
Cc1cc(-n2c(Cl)cc3c(=O)n(CC4(O)CCN(C(=O)C[C@H](c5ccccc5)C(F)(F)F)CC4)cnc32)ccc1[C@H]1CO[C@H](C)CN1 [Example 14, 6-Chloro-3-((4-hydroxy-1-((R)-4,4,4-trifluoro-3-phenylbutanoyl)piperidin-4-yl)methyl)-7-(3-methyl-4-((3S,6R)-6-methylmorpholin-3-yl)phenyl)-3,7-dihydro-4H-pyrrolo[2,3-d]pyrimidin-4-one] | 0.018 | < 0.1 | 0.018 | 40
CC1(C(=O)N2CCC(O)(Cn3cnc4c(cc(Cl)n4-c4ccc([C@H]5COCCN5)cc4)c3=O)CC2)CC1C(F)(F)F (stereo partly drawn) [Example 83, 6-Chloro-3-((4-hydroxy-1-(1-methyl-2-(trifluoromethyl)cyclopropane-1-carbonyl)piperidin-4-yl)methyl)-7-(4-((S)-morpholin-3-yl)phenyl)-3,7-dihydro-4H-pyrrolo[2,3-d]pyrimidin-4-one] | 0.028 | < 0.1 | 0.028 | 76
C[C@H]1CN[C@H](c2ccc(-n3c(Cl)cc4c(=O)n(CC5(O)CCN(C(=O)C6(C)CCC6)CC5)cnc43)cc2)CO1 [Example 102, 6-Chloro-3-((4-hydroxy-1-(1-methylcyclobutane-1-carbonyl)piperidin-4-yl)methyl)-7-(4-((3R,6S)-6-methylmorpholin-3-yl)phenyl)-3,7-dihydro-4H-pyrrolo[2,3-d]pyrimidin-4-one] |  | < 0.1 | 0.05 | 
C[C@H]1CN[C@H](c2ccc(-n3c(Cl)cc4c(=O)n(CC5(O)CCN(C(=O)CCC6CC6)CC5)cnc43)cc2)CO1 [Example 103, 6-Chloro-3-((1-(3-cyclopropylpropanoyl)-4-hydroxypiperidin-4-yl)methyl)-7-(4-((3R,6S)-6-methylmorpholin-3-yl)phenyl)-3,7-dihydro-4H-pyrrolo[2,3-d]pyrimidin-4-one] |  | 0.1 to 0.25 | 0.211 | 
CC1(C(=O)N2CCC(O)(Cn3cnc4c(cc(Cl)n4-c4ccc([C@H]5CO[C@H](C6CC6)CN5)cc4)c3=O)CC2)CC1 [Example 104, 6-Chloro-7-(4-((3S,6R)-6-cyclopropylmorpholin-3-yl)phenyl)-3-((4-hydroxy-1-(1-methylcyclopropane-1-carbonyl)piperidin-4-yl)methyl)-3,7-dihydro-4H-pyrrolo[2,3-d]pyrimidin-4-one] |  | < 0.1 | 0.094 | 
CC[C@@H]1CN[C@@H](c2ccc(-n3c(Cl)cc4c(=O)n(CC5(O)CCN(C(=O)C6(C)CC6)CC5)cnc43)cc2)CO1 [Example 105, 6-Chloro-7-(4-((3S,6R)-6-ethylmorpholin-3-yl)phenyl)-3-((4-hydroxy-1-(1-methylcyclopropane-1-carbonyl)piperidin-4-yl)methyl)-3,7-dihydro-4H-pyrrolo[2,3-d]pyrimidin-4-one] |  | < 0.1 | 0.073 | 
CC[C@H]1CN[C@H](c2ccc(-n3c(Cl)cc4c(=O)n(CC5(O)CCN(C(=O)C6(C)CC6)CC5)cnc43)cc2)CO1 [Example 106, 6-Chloro-7-(4-((3R,6S)-6-ethylmorpholin-3-yl)phenyl)-3-((4-hydroxy-1-(1-methylcyclopropane-1-carbonyl)piperidin-4-yl)methyl)-3,7-dihydro-4H-pyrrolo[2,3-d]pyrimidin-4-one] |  | 0.1 to 0.25 | 0.121 | 
C[C@@H]1CN[C@@H](c2ccc(-n3c(Cl)cc4c(=O)n(CC5(O)CCN(C(=O)C6(C)CC6)CC5)cnc43)cc2)CO1 [Example 107, 6-Chloro-3-((4-hydroxy-1-(1-methylcyclopropane-1-carbonyl)piperidin-4-yl)methyl)-7-(4-((3S,6R)-6-methylmorpholin-3-yl)phenyl)-3,7-dihydro-4H-pyrrolo[2,3-d]pyrimidin-4-one] |  | < 0.1 | 0.093 | 
C[C@@H]1CN[C@@H](c2ccc(-n3c(Cl)cc4c(=O)n(CC5(O)CCN(C(=O)[C@]6(C)C[C@H]6C(F)(F)F)CC5)cnc43)cc2)CO1 [Example 108, 6-Chloro-3-((4-hydroxy-1-((1R,2R)-1-methyl-2-(trifluoromethyl)cyclopropane-1-carbonyl)piperidin-4-yl)methyl)-7-(4-((3S,6R)-6-methylmorpholin-3-yl)phenyl)-3,7-dihydro-4H-pyrrolo[2,3-d]pyrimidin-4-one] |  | < 0.1 | 0.042 | 
C[C@@H]1CN[C@@H](c2ccc(-n3c(Cl)cc4c(=O)n(CC5(O)CCN(C(=O)[C@@]6(C)C[C@@H]6C(F)(F)F)CC5)cnc43)cc2)CO1 [Example 109, 6-Chloro-3-((4-hydroxy-1-((1S,2S)-1-methyl-2-(trifluoromethyl)cyclopropane-1-carbonyl)piperidin-4-yl)methyl)-7-(4-((3S,6R)-6-methylmorpholin-3-yl)phenyl)-3,7-dihydro-4H-pyrrolo[2,3-d]pyrimidin-4-one] |  | 0.1 to 0.25 | 0.182 | 
C[C@H]1CN[C@H](c2ccc(-n3c(Cl)cc4c(=O)n(CC5(O)CCN(C(=O)[C@@]6(C)C[C@@H]6C(F)F)CC5)cnc43)cc2)CO1 [Example 111, 6-Chloro-3-((1-((1 S,2S)-2-(difluoromethyl)-1-methylcyclopropane-1-carbonyl)-4-hydroxypiperidin-4-yl)methyl)-7-(4-((3R,6S)-6-methylmorpholin-3-yl)phenyl)-3,7-dihydro-4H-pyrrolo[2,3-d]pyrimidin-4-one] |  | 0.1 to 0.25 | 0.145 | 
C[C@H]1CN[C@H](c2ccc(-n3c(Cl)cc4c(=O)n(CC5(O)CCN(C(=O)[C@]6(C)C[C@H]6C(F)F)CC5)cnc43)cc2)CO1 [Example 112, 6-Chloro-3-((1-((1R,2R)-2-(difluoromethyl)-1-methylcyclopropane-1-carbonyl)-4-hydroxypiperidin-4-yl)methyl)-7-(4-((3R,6S)-6-methylmorpholin-3-yl)phenyl)-3,7-dihydro-4H-pyrrolo[2,3-d]pyrimidin-4-one] |  | < 0.1 | 0.018 | 
